{"source": "patent US20250201406A1", "about": "“METHOD AND BIOMARKER FOR PREDICTING SEVERITY OF COVID-19 DISEASE AND METHOD FOR THERAPEUTIC INTERVENTION IN COVID-19 DISEASE” (priority 2022, published 2025)", "key": {"COVID-19 [1]": {"system": "COVID-19", "conditions": "COVID-19 patients, stage-2 clinical trial; cited from earlier work"}, "COVID-19 [2]": {"system": "COVID-19", "conditions": "randomized clinical trials; cited from earlier work"}, "CD8^+Tc": {"system": "CD8^+Tc", "assay": "SARS-CoV-2 specific peptide activation of COVID(+) PBMCs in presence or absence of Mdivi-1, flow cytometry of CD8+Tc", "format": "cell-based, human", "conditions": "20 μM Mdivi-1 vs vehicle, 96 hr, CD8a SARS-CoV-2 megapool peptide, PBMCs from COVID-19(+) patients", "description": "(§1) PBMCs (0.5×10^6 cells) were first stained with live/dead in PBS for 15 min, washed with Flow Cytometry Staining Buffer (FACS Buffer), and stained with surface markers in ice-cold FACS buffer at 4° C. for 30 min. PBMCs were then washed twice with FACS buffer and stained with secondary antibodies for 15 minutes. Samples were fixed and permeabilized using Fixation/Permeabilization buffer (20 min) at room temperature and washed with ice-cold FACS buffer. PBMCs were then stained with intracellular antibodies at 37° C. for 45 min in permeabilization buffer. Samples were washed once with permeabilization buffer before being resuspended in FACS buffer for flow cytometric analysis using Cytoflex system. Data was then analyzed by Flowjo™v10.\n(§2) PBMCs (5×10^5) were stimulated with […] of CD8a SARS-CoV-2 megapool peptide^92 in the presence of absence of 20 μM Mdivi-1 at 37° C., 5% C02 for 96 hr.\n(§3) FIGS. 15A-F. Mitophagy inhibition restores CD8^+Tc and SARS-CoV-2 specific CD8^+Tc function. PBMCs from 5 COVID-19(+) patients were activated with SARS-CoV-2 megapool CD8a peptide (see Methods) in the presence or absence of MDIVI-1 (20 μM). One sample was excluded from analysis due to critically low CD8^+Tc count. […] Two-tailed student's T-test was used. *p<0.05, **p<0.01, and ***p<0.001."}, "SARS-CoV-2": {"system": "SARS-CoV-2", "conditions": "virally infected cells; cited from earlier work"}, "CD8^+TM": {"system": "CD8^+TM", "assay": "SARS-CoV-2 specific peptide activation of COVID(+) PBMCs in presence or absence of Mdivi-1, flow cytometry of CD8+TM", "format": "cell-based, human", "conditions": "20 μM Mdivi-1 vs vehicle, 96 hr, CD8a SARS-CoV-2 megapool peptide, PBMCs from COVID-19(+) patients", "description": "as §1, §2, §3"}, "[3]": {"system": "SARS-CoV-2 specific CD8^+Tc", "conditions": "through normalizing cellular metabolism; cited from earlier work"}}}
{"compound": "O=CC[C@@H](O)[C@H](O)[C@H](O)CO", "note": "[2-DG, 2-deoxy-glucose]", "values": [{"measurement": "patient outcomes", "setting": "COVID-19 [1]", "value": "successful in improving patient outcomes"}]}
{"compound": "CCN(CCO)CCCC(C)Nc1ccnc2cc(Cl)ccc12", "note": "(stereo not drawn) [Hydroxychloroquine]", "values": [{"measurement": "efficacy in COVID-19", "setting": "COVID-19 [2]", "value": "ineffective"}]}
{"compound": "COc1cc(-n2c(=S)[nH]c3ccccc3c2=O)c(Cl)cc1Cl", "note": "[Mdivi-1]", "values": [{"measurement": "generation of SARS-CoV-2-specific CD137^+ cells amongst CD8+Tc", "setting": "CD8^+Tc; FIG. 15B", "value": "improved"}, {"measurement": "proliferation (Ki-67^+ cells) of CD8+Tc", "setting": "CD8^+Tc; FIG. 15C", "value": "induced"}, {"measurement": "IFNy-secreting capacity of CD8^+Tc", "setting": "CD8^+Tc; FIG. 15D", "value": "induced"}, {"measurement": "SARS-CoV-2 replication", "setting": "SARS-CoV-2", "value": "effectively reduce"}, {"measurement": "Glut-1 expression in CD8^+TM", "setting": "CD8^+TM", "value": "reduced"}, {"measurement": "CD8^+TM proliferation (Ki-67)", "setting": "CD8^+TM; FIG. 15E", "value": "augmented"}]}
{"compound": "cyclophilin A: found to restore SARS-CoV-2 specific CD8+Tc function through normalizing cellular metabolism", "values": [{"measurement": "SARS-CoV-2 specific CD8^+Tc function", "setting": "[3]", "value": "restore"}]}
